Consider three compounds from patent US5681863A, “Non-metabolizable clomiphene analogs for treatment of tamoxifen-resistant tumors” (Merrell Pharmaceuticals Inc., priority 1994, dated 1997).

One assay concerns MCF-7. The experiment in a line: Antiproliferation test, MCF-7 human breast cancer cells (tamoxifen-sensitive). In kind it is cell-based. The conditions noted are these: for IC50: Homo sapiens, MCF7, 168 h, read-out: TRIPHENYLETHYLENE IC50's AGAINST BREAST CANCER CELLS, IC50, Cell line MCF-7; for IC50 compared with tamoxifen, in words (both cell lines: MCF-7): statement in words. The method, then: (§1) Antiproliferation test Procedure:
(§2) The tests were conducted in 96-well microtiter plates. 5×10^3 cells were added to each well. Culture medium and drug solutions were added to wells with a Perkin Elmer Cetus PRO/PETTE. The culture medium was IMEM supplemented with 5% fetal bovine serum. Eight drug concentrations were tested, in duplicate, from 0.078 micromolar (μM) to 10 μM. After four days incubation the medium was replaced with fresh medium containing drug, and after a total of seven days, the cell monolayers were fixed with trichloracetic acid and stained with sulforhodamine dye. Absorbances (492 nm) of the extracted dye solutions were measured with a Titertek Multiscan plate reader.

A further assay has as its system LY2. Description: Antiproliferation test, LY-2 human breast cancer cells (MCF-7 variant resistant to tamoxifen). The format is cell-based. As to conditions: for IC50: Homo sapiens, MCF7, 168 h, read-out: TRIPHENYLETHYLENE IC50's AGAINST BREAST CANCER CELLS, IC50, Cell line LY2; for IC50 compared with tamoxifen, in words (both cell lines: LY-2): statement in words. The method, then: as §1, §2

Counter-ions that a name gives are not always drawn.

Regarding `CCN(CC)CCCc1ccc(C(=C(Cl)c2ccccc2)c2ccccc2)cc1` [MDL 6866F, 1-[p-γ-diethylaminopropyl)phenyl]-1,2-diphenylchloroethylene dihydrogen citrate], in the assay with MCF-7, the IC50 (commonly the midpoint of a concentration-inhibition curve) was 320 nM and the “IC50 compared with tamoxifen, in words (both cell lines: MCF-7)” value is reported as “lower than the IC50 values of tamoxifen”. Also, in the assay on LY2, the IC50 is 1600 nM and the “IC50 compared with tamoxifen, in words (both cell lines: LY-2)” value is listed as “lower than the IC50 values of tamoxifen”.
In the case of `CCN(CC)CCSc1ccc(C(=C(Cl)c2ccccc2)c2ccccc2)cc1` [MDL 10007F, 2-[p-(2-Chloro-1,2-diphenylvinyl)-phenylthio]triethylamine Dihydrogen Citrate], in the assay with MCF-7, the IC50 was 370 nM and the “IC50 compared with tamoxifen, in words (both cell lines: MCF-7)” value was “lower than the IC50 values of tamoxifen”. In addition, in the assay with LY2, the IC50 was found to be 1000 nM and the “IC50 compared with tamoxifen, in words (both cell lines: LY-2)” value is on record as “lower than the IC50 values of tamoxifen”.
Consider `CCN(CC)CCNc1ccc(C(=C(Cl)c2ccccc2)c2ccccc2)cc1` [MDL 10222F, 2-[p-(2-Chloro-1,2-diphenylvinyl)-anilino]triethylamine Dihydrogen Citrate], for which, in the assay with MCF-7, the IC50 was 700 nM and the “IC50 compared with tamoxifen, in words (both cell lines: MCF-7)” value is recorded as “lower than the IC50 values of tamoxifen”. Further, in the assay with LY2, the IC50 was 3800 nM and the “IC50 compared with tamoxifen, in words (both cell lines: LY-2)” value was “lower than the IC50 values of tamoxifen”.
